The text below walks through data of US12552826B2, “PRMT5 inhibitors” (Merck Sharp & Dohme LLC, priority 2018, dated 2026).

pEC50: −log10 of the molar value.

T1 sequence (O14744 whole entry): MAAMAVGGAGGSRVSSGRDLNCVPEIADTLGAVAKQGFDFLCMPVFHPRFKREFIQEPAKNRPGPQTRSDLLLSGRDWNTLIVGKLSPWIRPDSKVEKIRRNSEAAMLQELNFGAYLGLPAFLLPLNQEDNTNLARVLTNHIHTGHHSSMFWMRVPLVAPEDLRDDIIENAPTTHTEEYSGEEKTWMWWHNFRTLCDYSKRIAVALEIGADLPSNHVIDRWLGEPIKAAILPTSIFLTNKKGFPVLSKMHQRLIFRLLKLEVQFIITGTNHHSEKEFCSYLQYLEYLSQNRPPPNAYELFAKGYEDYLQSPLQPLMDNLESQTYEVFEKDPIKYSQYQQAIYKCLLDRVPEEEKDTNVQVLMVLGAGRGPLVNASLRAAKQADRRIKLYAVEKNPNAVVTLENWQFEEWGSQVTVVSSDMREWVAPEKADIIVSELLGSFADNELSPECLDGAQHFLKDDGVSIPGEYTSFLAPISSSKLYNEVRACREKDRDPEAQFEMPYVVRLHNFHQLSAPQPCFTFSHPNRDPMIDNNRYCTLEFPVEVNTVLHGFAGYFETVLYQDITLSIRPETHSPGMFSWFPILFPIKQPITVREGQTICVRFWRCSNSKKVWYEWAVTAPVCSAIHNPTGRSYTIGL
T1 sequence (Q9BQA1 whole entry partner): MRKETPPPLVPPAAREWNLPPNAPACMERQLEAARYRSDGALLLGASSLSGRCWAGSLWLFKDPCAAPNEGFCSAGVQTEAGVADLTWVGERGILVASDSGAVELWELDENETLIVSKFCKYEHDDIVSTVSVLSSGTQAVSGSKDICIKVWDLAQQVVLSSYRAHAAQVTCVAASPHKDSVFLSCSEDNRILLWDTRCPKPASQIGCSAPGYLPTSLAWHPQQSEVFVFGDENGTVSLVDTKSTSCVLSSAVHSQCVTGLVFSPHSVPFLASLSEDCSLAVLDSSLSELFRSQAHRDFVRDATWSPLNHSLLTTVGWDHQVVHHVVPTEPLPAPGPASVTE

This test concerns the target T1, PRMT5 (Homo sapiens, UniProt O14744).
T1 construct: endogenous in cells; host or cells: MCF-7
Put plainly: PRMT5 Cell Target Engagement (TE) Assay. It is filed as cell-based. To be noted: MCF-7 cells, 3 days treatment, nuclear SDMA by high content imaging. The text has this: The PRMT5 TE assay is a biomarker assay for identifying compounds that inhibit symmetric dimethylation of arginine (SDMA) of PRMT5 substrates. The following substrates have been reported for PRMT5: Histone H2A and H4 R3, Histone H3 R2, Histone H3 R8, spliceosome Sm proteins, ribosomal protein RPS10, p53, FEN1, nucleoplasmin, nucleolin, EGFR and EBNA. The assay will focus on detecting symmetrically dimethylated nuclear proteins using high content imaging technology. Detection of the expression of symmetrically dimethylated nuclear proteins is through a mixture of primary rabbit monoclonal antibodies to SDMA (CST 13222), which in turn recognized by an Alexafluor 488 dye-conjugated anti-rabbit IgG secondary antibody. The IN Cell Analyzer 2200 or Opera-Phenix measures nuclear Alexafluor 488 fluorescent dye intensity that is directly related to the level of expression of symmetrically dimethylated nuclear proteins at the single cell level. Nuclear AF488 dye intensities are compared to the mean value for DMSO treated cells (MIN) to report percent of inhibition for each compound-treated well.
In this assay, the cell potency (EC50) of each compound was determined from a ten point (1:3 serial dilution; top compound concentration of 10000 nM) titration curve using the following outlined procedure. Each well of a BD falcon collagen coated black/clear bottom 384-well plate was seeded with 4000 MCF-7 cells in 30 μl media and allowed to attach for 5 hours. Media is ATCC-formulated Eagle's Minimum Essential Medium, Catalog No. 30-2003. The following components were added to the base medium: 0.01 mg/mL human recombinant insulin; fetal bovine serum to a final concentration of 10%. Additional 30 μl of media containing 2× compounds were added to each well. Cells were treated for 3 days in 37° C. CO2 incubator. On day 3, cells were fixed with Cytofix, permeabilized with 0.4% Triton-X-100/Cytofix, and washed with D-PBS without Ca/Mg. Cells were blocked with Licor Odessey blocking reagent for 1 hour at room temperature, followed by incubation with anti-SDMA (1:1000) antibody at 4° C. overnight. 1° antibody was removed, followed by three washings with DPBS without Ca/Mg and 0.05% Tween20. Hoechst (5 μg/mL), Cell Mask deep stain (1:2000) and Alexa488-conjugated goat anti-rabbit IgG (2 μg/mL) was added for 1 hour at room temperature. A final washing step (three washes) was performed before sealing plate for imaging on In Cell Analyzer 2200 or Opera-Phenix. Images from analyzer were uploaded to Columbus for image analysis. IC50 values were determined by 4 parameters robust fit of percent fluorescence units vs. (Log10) compound concentrations.
On to `C[C@@]1(O)[C@@H]([C@H](O)c2cc(C(F)F)c(F)c3c2CNCC3)O[C@@H](n2ccc3c(N)ncnc32)[C@@H]1O` [Example 8, (2R,3S,4R,5R)-5-(4-amino-7H-pyrrolo[2,3-d]pyrimidin-7-yl)-2-((R)-(6-(difluoromethyl)-5-fluoro-1,2,3,4-tetrahydroisoquinolin-8-yl)(hydroxy)methyl)-3-methyltetrahydrofuran-3,4-diol], for which the pEC50 (usually the negative decadic logarithm of the EC50, by convention in mol/L) is 7.19. `Cc1ncnc2c1ccn2[C@@H]1O[C@H]([C@H](O)c2cc(C(F)F)c(F)c3c2CNCC3)[C@@](C)(O)[C@H]1O` (single isomer, unassigned) [Example 89] showed a pEC50 of 7.12. Regarding `C[C@@]1(O)[C@@H]([C@@H](O)c2cc(F)cc(C(F)F)c2)O[C@@H](n2ccc3c(N)ncnc32)[C@@H]1O` [Example 5, (2R,3S,4R,5R)-5-(4-amino-7H-pyrrolo[2,3-d]pyrimidin-7-yl)-2-((S)-(3-(difluoromethyl)-5-fluorophenyl)(hydroxy)methyl)-3-methyltetrahydrofuran-3,4-diol], the pEC50 is 5.30. `C[C@@]1(O)[C@@H]([C@H](O)c2cc(F)c(F)c(F)c2)O[C@@H](n2ccc3c(N)ncnc32)[C@@H]1O` [Example 34, 7-[(5R)-3-C-methyl-5-C-(3,4,5-trifluorophenyl)-beta-D-ribofuranosyl]-7H-pyrrolo[2,3-d]pyrimidin-4-amine] had a negative-log EC50 (pEC50) of 6.64. To `C[C@]1(O)[C@@H](O)[C@H](n2ccc3c(N)ncnc32)O[C@@H]1[C@](C)(O)c1ccnc(C(F)F)c1` [Example 80, 7-{6-deoxy-5-C-[2-(difluoromethyl)pyridin-4-yl]-3-C-methyl-alpha-L-talofuranosyl}-7H-pyrrolo[2,3-d]pyrimidin-4-amine] belongs 6.44; to `C[C@@]1(O)[C@@H]([C@H](O)c2ccnc(C(F)F)c2)O[C@@H](n2ccc3c(N)ncnc32)[C@@H]1O` [Example 78, 7-{(5R)-5-C-[2-(difluoromethyl)pyridin-4-yl]-3-C-methyl-beta-D-ribofuranosyl}-7H-pyrrolo[2,3-d]pyrimidin-4-amine], 5.85. `C[C@@]1(O)[C@@H]([C@@H](O)c2cc(F)cc(C(F)F)c2F)O[C@@H](n2ccc3c(N)ncnc32)[C@@H]1O` [Example 7, (2R,3S,4R,5R)-5-(4-amino-7H-pyrrolo[2,3-d]pyrimidin-7-yl)-2-((S)-(3-(difluoromethyl)-2,5-difluorophenyl)(hydroxy)methyl)-3-methyltetrahydrofuran-3,4-diol] had a pEC50 of 5.18. To `C[C@@]1(O)[C@@H]([C@@H](O)c2cncc(C(F)F)c2)O[C@@H](n2ccc3c(N)ncnc32)[C@@H]1O` [Example 75, 7-{(5S)-5-C-[5-(difluoromethyl)pyridin-3-yl]-3-C-methyl-beta-D-ribofuranosyl}-7H-pyrrolo[2,3-d]pyrimidin-4-amine] belongs below 5.00; to `C[C@@]1(O)[C@@H]([C@@H](O)c2ccc(F)c(C(F)F)c2F)O[C@@H](n2ccc3c(N)ncnc32)[C@@H]1O` [Example 68, 7-{(5S)-5-C-[3-(difluoromethyl)-2,4-difluorophenyl]-3-C-methyl-beta-D-ribofuranosyl}-7H-pyrrolo[2,3-d]pyrimidin-4-amine], below 5.00. To `C[C@]1(O)[C@@H](O)[C@H](n2ccc3c(N)ncnc32)O[C@@H]1[C@](C)(O)c1cncc(C(F)F)c1` [Example 77, 7-{6-deoxy-5-C-[5-(difluoromethyl)pyridin-3-yl]-3-C-methyl-alpha-L-talofuranosyl}-7H-pyrrolo[2,3-d]pyrimidin-4-amine] belongs 5.88; to `C[C@H](c1cc(F)cc(C(F)F)c1)[C@H]1O[C@@H](n2ccc3c(N)ncnc32)[C@H](O)[C@]1(C)O` (single isomer, unassigned) [Example 84], 6.60. Molecule `C[C@@]1(O)[C@@H]([C@H](O)c2cc(F)cc(F)c2)O[C@@H](n2ccc3c(N)ncnc32)[C@@H]1O` [Example 22, 7-[(5R)-5-C-(3,5-difluorophenyl)-3-C-methyl-beta-D-ribofuranosyl]-7H-pyrrolo[2,3-d]pyrimidin-4-amine] gave a pEC50 of 7.23. To `C[C@]1(O)[C@@H](O)[C@H](n2ccc3c(N)ncnc32)O[C@@H]1[C@@](C)(O)c1ccnc(C(F)F)c1` [Example 81, 7-{6-deoxy-5-C-[2-(difluoromethyl)pyridin-4-yl]-3-C-methyl-beta-D-allofuranosyl}-7H-pyrrolo[2,3-d]pyrimidin-4-amine] belongs below 5.00; to `Cc1ncnc2c1ccn2[C@@H]1O[C@H]([C@H](C)c2cc(C(F)F)c(F)c3c2CNCC3)[C@@](C)(O)[C@H]1O` (single isomer, unassigned) [Example 92], 6.56; to `C=C(c1cc(F)cc(C(F)F)c1)[C@H]1O[C@@H](n2ccc3c(N)ncnc32)[C@H](O)[C@]1(C)O` [Example 82, (2R,3S,4R,5R)-5-(4-amino-7H-pyrrolo[2,3-d]pyrimidin-7-yl)-2-(1-(3-(difluoromethyl)-5-fluorophenyl)vinyl)-3-methyltetrahydrofuran-3,4-diol], 6.55. To `C[C@@]1(O)[C@@H]([C@@H](O)c2ccc(F)c(F)c2F)O[C@@H](n2ccc3c(N)ncnc32)[C@@H]1O` [Example 51, 7-[(5S)-3-C-methyl-5-C-(2,3,4-trifluorophenyl)-beta-D-ribofuranosyl]-7H-pyrrolo[2,3-d]pyrimidin-4-amine] belongs below 5.00. To `C[C@@]1(O)[C@@H]([C@@H](O)c2ccnc(C(F)F)c2)O[C@@H](n2ccc3c(N)ncnc32)[C@@H]1O` [Example 79, 7-{(5S)-5-C-[2-(difluoromethyl)pyridin-4-yl]-3-C-methyl-beta-D-ribofuranosyl}-7H-pyrrolo[2,3-d]pyrimidin-4-amine] belongs below 5.00; to `C[C@H](c1cc(F)cc(C(F)F)c1)[C@H]1O[C@@H](n2ccc3c(N)ncnc32)[C@H](O)[C@]1(C)O` (single isomer, unassigned) [Example 83], 6.92; to `C[C@@]1(O)[C@@H]([C@@H](O)c2cccc(Cl)c2F)O[C@@H](n2ccc3c(N)ncnc32)[C@@H]1O` [Example 47, 7-[(5S)-5-C-(3-chloro-2-fluorophenyl)-3-C-methyl-beta-D-ribofuranosyl]-7H-pyrrolo[2,3-d]pyrimidin-4-amine], below 5.00. Regarding `C[C@@]1(O)[C@@H]([C@@H](O)c2cccc(C(F)F)c2)O[C@@H](n2ccc3c(N)ncnc32)[C@@H]1O` [Example 57, 7-{(5S)-5-C-[3-(difluoromethyl)phenyl]-3-C-methyl-beta-D-ribofuranosyl}-7H-pyrrolo[2,3-d]pyrimidin-4-amine], the pEC50 is below 5.00. To `C[C@@]1(O)[C@@H]([C@H](O)c2cccc(F)c2)O[C@@H](n2ccc3c(N)ncnc32)[C@@H]1O` [Example 20, 7-[(5R)-5-C-(3-fluorophenyl)-3-C-methyl-beta-D-ribofuranosyl]-7H-pyrrolo[2,3-d]pyrimidin-4-amine] belongs 6.85; to `C[C@@]1(O)[C@@H]([C@@H](O)c2cc(F)cc(F)c2F)O[C@@H](n2ccc3c(N)ncnc32)[C@@H]1O` [Example 53, 7-[(5S)-3-C-methyl-5-C-(2,3,5-trifluorophenyl)-beta-D-ribofuranosyl]-7H-pyrrolo[2,3-d]pyrimidin-4-amine], 5.05; to `C[C@@]1(O)[C@@H]([C@H](O)c2cc(Cl)cc(Cl)c2)O[C@@H](n2ccc3c(N)ncnc32)[C@@H]1O` [Example 18, 7-[(5R)-5-C-(3,5-dichlorophenyl)-3-C-methyl-beta-D-ribofuranosyl]-7H-pyrrolo[2,3-d]pyrimidin-4-amine], 7.85. To `C[C@@]1(O)[C@@H]([C@@H](O)c2cc(F)cc(C(F)(F)F)c2)O[C@@H](n2ccc3c(N)ncnc32)[C@@H]1O` [Example 59, 7-{(5S)-5-C-[3-fluoro-5-(trifluoromethyl)phenyl]-3-C-methyl-beta-D-ribofuranosyl}-7H-pyrrolo[2,3-d]pyrimidin-4-amine] belongs below 5.00; to `C[C@]1(O)[C@@H](O)[C@H](n2ccc3c(N)ncnc32)O[C@@H]1[C@](C)(O)c1cc(F)cc(C(F)F)c1` [Example 66, 7-{6-deoxy-5-C-[3-(difluoromethyl)-5-fluorophenyl]-3-C-methyl-alpha-L-talofuranosyl}-7H-pyrrolo[2,3-d]pyrimidin-4-amine], 8.40. To `Cc1ccccc1[C@H](O)[C@H]1O[C@@H](n2ccc3c(N)ncnc32)[C@H](O)[C@]1(C)O` [Example 41, 7-[(5S)-3-C-methyl-5-C-(2-methylphenyl)-beta-D-ribofuranosyl]-7H-pyrrolo[2,3-d]pyrimidin-4-amine] belongs below 5.00.
